Assay results reported in patent US11261425B2, “Method for inducing differentiation of pluripotent stem cells into neural precursor cells” (Kyoto University, priority 2009, dated 2022).

Key:
Type in all cases: cell-based, Human
[1] = test system: KhES-1, KhES-2, KhES-3, G1, G4, B6, and B7; experiment: SDIA method, colony counts per well in 7 ES/iPS cell lines; conditions: day 14, 7 cell lines; for Number of colonies per well compared with control group or Noggin group: n=28
Protocol: When at least one positive cell could be confirmed within a colony, such colony was counted as a positive colony. […] Biochem Biophys Res Commun. 345: 926-32, 2006). Human iPS cells (G1, G4, B6, and B7) were provided by Dr. Yamanaka of Kyoto University and then cultured by the known method (Takahashi K, et al. Cell. 131: 861-72, 2007 and Nakagawa M, et al. Nat Biotechnol. 26: 101-6, 2008). PA6 cells (RIKEN BRC Cell Bank) were seeded on a gelatin-coated dish and then cultured using MEM alpha containing 10% FBS. Upon induction of differentiation, cells were cultured for at least one day, confirmed to be confluent, and then used as feeder cells. […] ES cells or iPS cells were cultured using STO cells as feeder cells. One day before the initiation of differentiation induction, 10 μM ROCK inhibitor (Y27632) was added into a medium. […] The dish was gently tapped to remove feeder cells. After washing once with PBS, the CTK dissociation solution was added again, followed by 10-15 minutes of incubation at 37° C. ES cells or iPS cells detached from the dish were suspended in 5 ml of differentiation medium (DMEM/Ham's F12 containing 5% knockout serum replacement (KSR), 2 mM L-glutamine, non-essential amino acids, and 1 μM 2-mercaptoethanol (2-ME)). After centrifugation, supernatants were removed. Again, the cells were suspended in 1 ml of the differentiation medium and then separated from each other by pipetting, so as to result in small aggregates (10-20 cells/clump). The obtained small aggregates were seeded on dishes having PA6 as feeder cells at concentrations ranging from 2500 to 5000 cells/cm^2. As a medium, a differentiation medium containing 2 μM Dorsomorphin (Sigma) and/or 10 μM SB431542 (Sigma) and/or 300 ng/ml Noggin (HZ-1026: HumanZyme) or 2 μl/well DMSO was used. 10 μM Y27632 was added only in the initial culture. Medium exchange was not performed until day 7, and it was then performed once every 3 to 4 days. On day 14 after differentiation induction, cells were fixed with 4% PFA for 30 minutes at 4° C. and then immunostained in PBS with each antibody listed in Table 1. […]

iPS cells (G4) = experiment: Differentiation of iPS cells into neural precursor cells on PA6 feeder cells (SDIA method), immunostaining; conditions: day 14, PA6 feeder cells; for Nestin and Oct3/4 immunostaining of colonies: 2 μM Dorsomorphin and/or 10 μM SB431542
Protocol: Human ES cells (KhES-1, KhES-2, and KhES-3) from the Institute for Frontier Medical Sciences, Kyoto University were provided, and they were then cultured by the known method (Suemori H, et al. Biochem Biophys Res Commun. 345: 926-32, 2006). Human iPS cells (G1, G4, B6, and B7) were provided by Dr. Yamanaka of Kyoto University and then cultured by the known method (Takahashi K, et al. Cell. 131: 861-72, 2007 and Nakagawa M, et al. Nat Biotechnol. 26: 101-6, 2008). PA6 cells (RIKEN BRC Cell Bank) were seeded on a gelatin-coated dish and then cultured using MEM alpha containing 10% FBS. Upon induction of differentiation, cells were cultured for at least one day, confirmed to be confluent, and then used as feeder cells. Human iPS cells (404C2) was established by introducing reprogramming factors (OCT3/4, SOX2, KLF4, L-MYC, LIN28, and shRNA for p53) into human fibroblast using a vector containg EBNA-1 and oriP (U.S. 61/232,402 and U.S. 61/307,306), then cultured by same method of other human iPS cells.
ES cells or iPS cells were cultured using STO cells as feeder cells. One day before the initiation of differentiation induction, 10 μM ROCK inhibitor (Y27632) was added into a medium. CTK dissociation solution (0.25% Trypsin, 1 mg/ml Collagenase and KSR 20%, and 1 mM CaCl2) was added at 500 μl/10 cm dish, followed by 3 to 5 minutes of incubation at 37° C. The dish was gently tapped to remove feeder cells. After washing once with PBS, the CTK dissociation solution was added again, followed by 10-15 minutes of incubation at 37° C. ES cells or iPS cells detached from the dish were suspended in 5 ml of differentiation medium (DMEM/Ham's F12 containing 5% knockout serum replacement (KSR), 2 mM L-glutamine, non-essential amino acids, and 1 μM 2-mercaptoethanol (2-ME)). After centrifugation, supernatants were removed. Again, the cells were suspended in 1 ml of the differentiation medium and then separated from each other by pipetting, so as to result in small aggregates (10-20 cells/clump).
The obtained small aggregates were seeded on dishes having PA6 as feeder cells at concentrations ranging from 2500 to 5000 cells/cm^2. As a medium, a differentiation medium containing 2 μM Dorsomorphin (Sigma) and/or 10 μM SB431542 (Sigma) and/or 300 ng/ml Noggin (HZ-1026: HumanZyme) or 2 μl/well DMSO was used. 10 μM Y27632 was added only in the initial culture. Medium exchange was not performed until day 7, and it was then performed once every 3 to 4 days.
On day 14 after differentiation induction, cells were fixed with 4% PFA for 30 minutes at 4° C. and then immunostained in PBS with each antibody listed in Table 1.

KhES-5 cells = experiment: Optimal concentration of LDN-193189 with SB431542 (SDIA method), KhES-5; conditions: day 14, with SB431542, PA6 cells
Protocol: Differentiation was induced by co-culturing an ES cell line (Kh-ES5) with PA6 cells according to the SDIA method, then culturing the cells in a medium supplemented with 5-500 nM LDN-193189 and SB431542.
On one day before the initiation of differentiation induction, CTK dissociation solution (0.25% Trypsin, 1 mg/ml Collagenase and KSR 20%, and 1 mM CaCl2) was added to ES cells (KhES-1, KhES-4, and KhES-5), colonies were dissociated. ES cells detached from the dish were subjected to removal of MEF on gelatin coating, suspended in a differentiation medium (DMEM/Ham's F12 containing 5% knockout serum replacement (KSR), 2 mM L-glutamine, non-essential amino acids, and 1 μM 2-mercaptoethanol (2-ME)) for 1 hour, and then separated by pipetting so as to result in small aggregates (10-20 cells/clump). The obtained small aggregates were seeded on PA6 at a concentration ranging from 2500 to 5000 cells/cm^2. On day 4 of culture, the medium was exchanged with a differentiation medium supplemented with 10 μM SB431542 and 5-1,000 nM LDN-193189. Three days later, the medium was exchanged with a differentiation medium without SB431542 and LDN-193189. Thereafter, medium exchanges with such a differentiation medium without SB431542 and LDN-193189 were performed at 2- to 3-day intervals. […]

[2] = test system: KhES-1 cell line and KhES-4 cell line; experiment: Optimal concentration of LDN-193189 with SB431542 (SDIA method), KhES-1 and KhES-4; conditions: day 14, with SB431542, PA6 cells
Protocol: On one day before the initiation of differentiation induction, CTK dissociation solution (0.25% Trypsin, 1 mg/ml Collagenase and KSR 20%, and 1 mM CaCl2) was added to ES cells (KhES-1, KhES-4, and KhES-5), colonies were dissociated. ES cells detached from the dish were subjected to removal of MEF on gelatin coating, suspended in a differentiation medium (DMEM/Ham's F12 containing 5% knockout serum replacement (KSR), 2 mM L-glutamine, non-essential amino acids, and 1 μM 2-mercaptoethanol (2-ME)) for 1 hour, and then separated by pipetting so as to result in small aggregates (10-20 cells/clump). The obtained small aggregates were seeded on PA6 at a concentration ranging from 2500 to 5000 cells/cm^2. On day 4 of culture, the medium was exchanged with a differentiation medium supplemented with 10 μM SB431542 and 5-1,000 nM LDN-193189. Three days later, the medium was exchanged with a differentiation medium without SB431542 and LDN-193189. Thereafter, medium exchanges with such a differentiation medium without SB431542 and LDN-193189 were performed at 2- to 3-day intervals.
Human ES cells (KhES-1, KhES-4, and KhES-5) were subjected to differentiation induction performed by a stromal cell-derived inducing activity method (SDIA method) using LDN-193189 at a concentration ranging from 5 nM to 1000 nM, in order to determine an optimal concentration of LDN-193189.

SMILES: c1cc(-c2cnn3cc(-c4ccc(OCCN5CCCCC5)cc4)cnc23)ccn1 [Dorsomorphin, 6-[4-(2-piperidin-1-yl-ethoxy)phenyl]-3-pyridin-4-yl-pyrazolo[1,5-a]pyrimidine]
- Number of colonies per well compared with control group or Noggin group [1]: significantly higher
- Immunostaining for undifferentiation markers Nanog or SSEA3 and neural markers Pax6 or PSA-NCAM (iPS cells (G4)): undifferentiated cells and neural precursor cells coexisted
- Nestin and Oct3/4 immunostaining of colonies (iPS cells (G4)): colonies positive for both Nestin and Oct3/4 were confirmed

SMILES: NC(=O)c1ccc(-c2nc(-c3ccc4c(c3)OCO4)c(-c3ccccn3)[nH]2)cc1 [SB431542, 4-[4-(1,3-benzodioxol-5-yl)-5-(2-pyridinyl)-1H-imidazol-2-yl]benzamide]
- Elimination of undifferentiated cells (Nestin-positive vs Oct3/4-positive colonies) [1]: effective in elimination of undifferentiated cells
- Number of colonies per well compared with control group or Noggin group [1]: significantly higher
- Immunostaining for undifferentiation markers Nanog or SSEA3 and neural markers Pax6 or PSA-NCAM (iPS cells (G4)): neural precursor cells appeared in aggregated cell populations
- Nestin and Oct3/4 immunostaining of colonies (iPS cells (G4)): aggregated cell populations were positive for Nestin

SMILES: c1ccc2c(-c3cnn4cc(-c5ccc(N6CCNCC6)cc5)cnc34)ccnc2c1 [LDN-193189, 4-(6-(4-(piperazin-1-yl)phenyl)pyrazolo[1,5-a]pyrimidin-3-yl)quinoline]
- Concentration of LDN-193189 at which differentiation into neural precursor cells was induced relatively successfully (Nestin staining) (KhES-5 cells): ≥ 50 nM
- Increase of effect at LDN-193189 concentration higher than 50 nM (KhES-5 cells): not observed that the effect was increased
- Concentration of LDN-193189 at which cells were stained to the highest degree with Pax6 [2]: 20 nM
